Results reported in US12617756B2 (ABIVAX, priority 2019, dated 2026).

Test system: RSV A2
Experiment: Screening for RSV inhibition using Viral ToxGlo assay (cytopathic effect inhibition in HEp-2 cells)
Format: cell-based, Respiratory Syncytial Virus (RSV)
Settings: human respiratory syncytial virus; RSV A2 in HEp-2 cells, MOI 0.5, 72h p.i., cytopathic effect inhibition relative to virus control, Viral ToxGlo luminescence
Method in brief: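 HEp-2 cells in 2% FBS medium infected with RSV A2 right after compound addition (max 1% DMSO), uninfected wells used for cytotoxicity. After 72 h p.i. at 37 °C/5% CO2, cell viability read by Viral ToxGlo luminescence as measure of cytopathic effect.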

Structure (SMILES) | EC50 [nM]
O=C(N=C1NCCN1)c1cc(F)c(Nc2cccc(C(=O)N3CCOCC3)c2)c(C2CC2)c1 [Compound 119, 3-cyclopropyl-5-fluoro-N-[imidazolidin-2-ylidene]-4-{[3-(morpholine-4-carbonyl)phenyl]amino}benzamide] | 108
O=C(N=C1NCCN1)c1ccc(Nc2cccc(C(=O)N3C[C@@H]4C[C@H]3CO4)c2Cl)c(C2CC2)c1 [Compound 120, 4-({2-chloro-3-[(1S,4S)-2-oxa-5-azabicyclo[2.2.1]heptane-5-carbonyl]phenyl}amino)-3-cyclopropyl-N—[imidazolidin-2-ylidene]benzamide] | 19.5
O=C(N=C1NCCN1)c1ccc(Nc2cccc(C(=O)N3CCOC(C(F)(F)F)C3)c2Cl)c(C2CC2)c1 (stereo not shown) [Compound 121, 4-({2-chloro-3-[2-(trifluoromethyl)morpholine-4-carbonyl]phenyl}amino)-3-cyclopropyl-N—[imidazolidin-2-ylidene]benzamide] | 5.1
O=C(N=C1NCCN1)c1ccc(Nc2cccc(C(=O)N3CCOCC3C(F)(F)F)c2Cl)c(C2CC2)c1 (stereo not shown) [Compound 122, 4-({2-chloro-3-[3-(trifluoromethyl)morpholine-4-carbonyl]phenyl}amino)-3-cyclopropyl-N—[imidazolidin-2-ylidene]benzamide] | 7.8
CC1(NC(=O)c2ccnc(Nc3ccc(C(=O)N=C4NCCN4)cc3C3CC3)c2Cl)CC1 [Compound 123, 3-chloro-2-[(2-cyclopropyl-4-{[imidazolidin-2-ylidene]carbamoyl}phenyl)amino]-N-(1-methylcyclopropyl)pyridine-4-carboxamide] | 83
CC1(NC(=O)c2cccc(Nc3c(F)cc(C(=O)N=C4NCCN4)cc3C3CCCO3)c2)CC1 (stereo not shown) [Compound 125, 3-fluoro-N—[imidazolidin-2-ylidene]-4-({3-[(1-methylcyclopropyl)carbamoyl]phenyl}amino)-5-(oxolan-2-yl)benzamide] | 19.1
N#CC1(NC(=O)c2cccc(Nc3c(F)cc(C(=O)N=C4NCCN4)cc3C3CC3)c2)CC1 [Compound 127, 4-({3-[(1-cyanocyclopropyl)carbamoyl]phenyl}amino)-3-cyclopropyl-5-fluoro-N-[imidazolidin-2-ylidene]benzamide] | 101
CC(C)NC(=O)c1cc(F)cc(Nc2c(F)cc(C(=O)N=C3NCCN3)cc2C2CC2)c1 [Compound 128, 3-cyclopropyl-5-fluoro-4-({3-fluoro-5-[(propan-2-yl)carbamoyl]phenyl}amino)-N-[imidazolidin-2-ylidene]benzamide] | 13.2
CC1(NC(=O)c2cccc(Nc3c(F)cc(C(=O)N=C4NCCN4)cc3C3CC3)c2Cl)CC1 [Compound 129, 4-({2-chloro-3-[(1-methylcyclopropyl)carbamoyl]phenyl}amino)-3-cyclopropyl-5-fluoro-N-[imidazolidin-2-ylidene]benzamide] | 4.3
CC(C)NC(=O)c1cccc(Nc2c(F)cc(C(=O)N=C3NCCN3)cc2C2CC2)c1F [Compound 130, 3-cyclopropyl-5-fluoro-4-({2-fluoro-3-[(propan-2-yl)carbamoyl]phenyl}amino)-N-[imidazolidin-2-ylidene]benzamide] | 7.3
CC(C)NC(=O)c1cccc(Nc2cc(F)c(C(=O)N=C3NCCN3)cc2C2CC2)c1 [Compound 131, 5-cyclopropyl-2-fluoro-N-[imidazolidin-2-ylidene]-4-({3-[(propan-2-yl)carbamoyl]phenyl}amino)benzamide] | 77.9
CC1(NC(=O)c2cccc(Nc3ccc(C(=O)N=C4NCCN4)cc3C(C)(C)C)c2Cl)CC1 [Compound 132, 3-tert-butyl-4-({2-chloro-3-[(1-methylcyclopropyl)carbamoyl]phenyl}amino)-N-[imidazolidin-2-ylidene]benzamide] | 23.6
O=C(N=C1NCCN1)c1cc(F)c(Nc2cccc(C(=O)N3CCOCC3)c2Cl)c(C2CCOC2)c1 (stereo not shown) [Compound 134, 4-{[2-chloro-3-(morpholine-4-carbonyl)phenyl]amino}-3-fluoro-N-[imidazolidin-2-ylidene]-5-(oxolan-3-yl)benzamide] | 39.2
